Source: patent publication US7285556B2, “Thienopyrimidine-based inhibitors of the src family” (Board of Regents, The University of Texas Systems, priority 2000, dated 2007)
pIC50: −log10 of the molar value. Like-named read-outs stand apart in the source and are kept apart here.

What was measured:
Recombinant human Src = target: T1, Recombinant human Src (Homo sapiens, UniProt P12931); assay: Src tyrosine kinase activity, poly E4Y and 32P-ATP; type: biochemical
T1 construct: made in house; host or cells: baculovirus-insect cell system
T1 sequence (P12931 whole entry): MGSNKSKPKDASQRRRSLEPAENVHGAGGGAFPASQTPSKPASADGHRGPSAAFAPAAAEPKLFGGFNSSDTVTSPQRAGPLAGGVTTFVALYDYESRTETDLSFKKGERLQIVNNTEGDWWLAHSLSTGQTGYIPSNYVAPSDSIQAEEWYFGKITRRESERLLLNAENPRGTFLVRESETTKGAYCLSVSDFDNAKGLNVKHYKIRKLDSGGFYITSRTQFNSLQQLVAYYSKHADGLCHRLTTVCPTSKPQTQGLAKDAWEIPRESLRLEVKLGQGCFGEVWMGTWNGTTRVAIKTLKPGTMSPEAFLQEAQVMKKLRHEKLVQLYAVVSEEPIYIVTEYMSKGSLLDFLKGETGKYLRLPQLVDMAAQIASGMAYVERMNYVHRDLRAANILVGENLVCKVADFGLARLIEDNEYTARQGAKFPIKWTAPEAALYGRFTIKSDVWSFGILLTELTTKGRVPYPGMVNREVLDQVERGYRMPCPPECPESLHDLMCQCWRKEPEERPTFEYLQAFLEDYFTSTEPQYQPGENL
Outline: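 Recombinant GST-Csk (E. coli) or baculovirus-expressed human Src assayed on poly E4Y in 0.15 M EPPS-NaOH pH 8.0, 6 mM MgCl2, 0.2 mM γ32P-ATP, 10% glycerol, 0.1% Triton X-100. Read-out is 32P incorporation into poly E4Y; for ATP variation (0–250 μM), poly E4Y held at 150 μg/ml.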

Csk = target: T2, Csk (Homo sapiens, UniProt P41240); assay: Csk tyrosine kinase activity, poly E4Y and 32P-ATP; type: biochemical
T2 construct: GST (glutathione-S-transferase) (N); made in house; host or cells: E. coli (pGEX vector)
T2 sequence (P41240 whole entry, species assumed): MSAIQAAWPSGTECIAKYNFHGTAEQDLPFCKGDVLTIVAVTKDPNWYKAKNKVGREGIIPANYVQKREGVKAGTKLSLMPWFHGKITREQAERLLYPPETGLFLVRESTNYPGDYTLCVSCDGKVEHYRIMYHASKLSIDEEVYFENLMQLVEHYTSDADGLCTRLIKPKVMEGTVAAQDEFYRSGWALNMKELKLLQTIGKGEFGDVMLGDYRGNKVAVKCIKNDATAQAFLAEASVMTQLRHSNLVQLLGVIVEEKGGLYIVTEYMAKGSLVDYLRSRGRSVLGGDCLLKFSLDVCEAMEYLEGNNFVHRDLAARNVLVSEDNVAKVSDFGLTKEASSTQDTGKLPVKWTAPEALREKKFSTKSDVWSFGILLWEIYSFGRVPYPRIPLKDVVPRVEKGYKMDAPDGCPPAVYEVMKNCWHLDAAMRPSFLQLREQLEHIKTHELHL
Protocol: Recombinant human Src was expressed using the baculovirus-insect cell system and purified as published (Budde et al., 1993 and 2000). Recombinant Csk and the FGF receptor (FGFr) were expressed as glutathione-S-transferase fusion proteins using the pGEX expression vector and E. coli, and purified as described (Sun & Budde, 1995).
The tyrosine kinase activity of Src, Csk and FGFr was determined using poly E4Y and ^32P-ATP. Briefly, enzymes were assayed in a reaction mixture consisting of 0.15 M EPPS-NaOH (pH 8.0) with 6 mM MgCl2, 0.2 mM γ^32P-ATP (0.2-0.4 mCi/μmol), 10% glycerol, 0.1% Triton X-100, and poly E4Y. Poly E4Y is a synthetic peptide whose phosphorylation is measured in this assay by the addition of the radioactively labeled phosphate from the ATP (Budde et al., 1995). […] When ATP was varied (0, 50, 100 and 250 μM), poly E4Y was kept constant at 150 μg/ml.

[1] = Table 2, read-out: Src IC50 (especially good inhibitors of Src)
[2] = read-out: IC50 (preferred compounds for treatment of Src family-related disease)
[3] = screening assay, 50 μg/ml poly E4Y, 0.2 mM 32P-ATP

SMILES	pIC50 (Recombinant human Src; [1])	pIC50 (Recombinant human Src; [2])	pIC50 (Csk; [3])	pIC50 (Recombinant human Src; screening assay, 50 μg/ml poly E4Y, 0.2 mM 32P-ATP, read-out: Src IC50)	pIC50 (Csk; poly E4Y and 32P-ATP)
Cc1csc2c(NN=Cc3ccc[nH]3)ncnc12 [Compound 30, 1H-Pyrrole-2-carboxaldehyde(7-methylthieno[3,2-d]pyrimidin-4-yl)hydrazone]	≥ 5.70	> 5.70	< 3.71	–	–
COc1ccc(-c2sc3c(NN=Cc4ccc(OC)c(O)c4)ncnc3c2C)cc1 [Compound 425, 3-Hydroxy-4-methoxybenzaldehyde(6-(4-methoxyphenyl)-7-methylthieno[3,2-d]pyrimidin-4-yl)hydrazone]	≥ 5.70	> 5.70	< 3.92	–	–
Cc1c(I)sc2c(NN=Cc3cccnc3)ncnc12 [Compound 372, 3-Pyridinecarboxaldehyde(6-iodo-7-methylthieno[3,2-d]pyrimidin-4-yl)hydrazone]	≥ 5.70	> 5.70	< 3.90	–	–
Cc1c(-c2ccc(CO)cc2)sc2c(NN=Cc3cccs3)ncnc12 [Compound 438, 2-Thiophenecarboxaldehyde(6-(4-hydroxymethylphenyl)-7-methylthieno[3,2-d]pyrimidin-4-yl)hydrazone]	≥ 5.70	> 5.70	< 3.88	–	–
Cc1csc2c(NN=Cc3ccccc3O)ncnc12 [Compound 44]	–	–	< 3.75	< 3.75	–
COc1ccc(C=NNc2ncnc3c(C)c(C(Cc4ccccc4)c4ccccc4)sc23)cc1O (centres unmarked) [Compound 475, 3-Hydroxy-4-methoxybenzaldehyde(6-(1-benzyl-1-phenyl)methyl-7-methylthieno[3,2-d]pyrimidin-4-yl)hydrazone]	≥ 5.70	> 5.70	–	–	< 4.00
COc1ccc(C=NNc2ncnc3c(C)csc23)cc1OC [Compound 17, 3,4-Dimethoxybenzaldehyde(7-methylthieno[3,2-d]pyrimidin-4-yl)hydrazone]	≥ 5.70	> 5.70	< 3.82	–	–
C(=NNc1ncnc2c1sc1ncccc12)c1cccs1 [Compound 244, 2-Thiophenecarboxaldehyde(pyrido[3′,2′:4,5]thieno[3,2-d]pyrimidin-4-yl)hydrazone]	≥ 5.70	> 5.70	< 3.79	–	–
Cc1c(-c2cccc(CO)c2)sc2c(NN=Cc3cccs3)ncnc12 [Compound 442, 2-Thiophenecarboxaldehyde(6-(3-hydroxymethylphenyl)-7-methylthieno[3,2-d]pyrimidin-4-yl)hydrazone]	≥ 5.70	> 5.70	< 3.88	–	–
Cc1ccc(C=NNc2ncnc3c(C)csc23)s1 [Compound 120, 5-Methyl-2-thiophenecarboxaldehyde(7-methylthieno[3,2-d]pyrimidin-4-yl)hydrazone]	≥ 5.70	> 5.70	< 3.76	–	–
COc1ccccc1-c1sc2c(NN=Cc3cccnc3)ncnc2c1C [Compound 432, 3-Pyridinecarboxaldehyde(6-(2-methoxyphenyl)-7-methylthieno[3,2-d]pyrimidin-4-yl)hydrazone]	≥ 5.70	> 5.70	< 3.88	–	–
COc1cc(C=NNc2ncnc3c(C)csc23)ccc1O [Compound 53, 4-Hydroxy-3-methoxybenzaldehyde(7-methylthieno[3,2-d]pyrimidin-4-yl)hydrazone]	≥ 5.70	> 5.70	< 3.80	–	–
COc1cccc(-c2sc3c(NN=Cc4cccs4)ncnc3c2C)c1 [Compound 428, 2-Thiophenecarboxaldehyde(6-(3-methoxyphenyl)-7-methylthieno[3,2-d]pyrimidin-4-yl)hydrazone]	≥ 5.70	> 5.70	< 3.88	–	–
CCOc1cc(C=NNc2ncnc3c(C)csc23)ccc1O [Compound 50, 3-Ethoxy-4-hydroxybenzaldehyde(7-methylthieno[3,2-d]pyrimidin-4-yl)hydrazone]	≥ 5.70	> 5.70	< 3.82	–	–
COc1cccc(-c2sc3c(NN=Cc4ccc(OC)c(O)c4)ncnc3c2C)c1 [Compound 429, 3-Hydroxy-4-methoxybenzaldehyde(6-(3-methoxyphenyl)-7-methylthieno[3,2-d]pyrimidin-4-yl)hydrazone]	≥ 5.70	> 5.70	< 3.92	–	–
COc1ccc(C=NNc2ncnc3c2sc2ncccc23)cc1O [Compound 247, 3-Hydroxy-4-methoxybenzaldehyde(pyrido[3′,2′:4,5]thieno[3,2-d]pyrimidin-4-yl)hydrazone]	≥ 5.70	> 5.70	< 3.85	–	–
COc1cccc(-c2sc3c(NN=Cc4cccnc4)ncnc3c2C)c1 [Compound 426, 3-Pyridinecarboxaldehyde(6-(3-methoxyphenyl)-7-methylthieno[3,2-d]pyrimidin-4-yl)hydrazone]	≥ 5.70	> 5.70	< 3.88	–	–
COc1cc(C=NNc2ncnc3c(C)csc23)cc(OC)c1 [Compound 18, 3,5-Dimethoxybenzaldehyde(7-methylthieno[3,2-d]pyrimidin-4-yl)hydrazone]	≥ 5.70	> 5.70	< 3.82	–	–
Brc1cc2ncnc(NN=Cc3cccnc3)c2s1 [Compound 221, 3-Pyridinecarboxaldehyde(6-bromothieno[3,2-d]pyrimidin-4-yl)hydrazone]	≥ 5.70	> 5.70	< 3.83	–	–
COc1cc(C(O)c2sc3c(NN=Cc4cccnc4)ncnc3c2C)cc(OC)c1OC (centres unmarked) [Compound 479, 3-Pyridinecarboxaldehyde(6-(1-hydroxy-1-[3,4,5-trimethoxyphenyl])methyl-7-methylthieno[3,2-d]pyrimidin-4-yl)hydrazone]	–	–	–	–	< 3.97
Clc1ccc(-c2cc3ncnc(NN=Cc4cccs4)c3s2)cc1 [Compound 310]	–	–	< 3.87	–	–
Cc1csc2c(NN=Cc3nccn3C)ncnc12 [Compound 101, 1-Methyl-1H-imidazole-2-carboxaldehyde(7-methylthieno[3,2-d]pyrimidin-4-yl)hydrazone]	–	–	< 3.74	–	–
Cc1c(I)sc2c(NN=Cc3cccs3)ncnc12 [Compound 374, 2-Thiophenecarboxaldehyde(6-iodo-7-methylthieno[3,2-d]pyrimidin-4-yl)hydrazone]	–	–	< 3.90	–	–
Cc1csc2c(NN=Cc3ccc(O)cc3)ncnc12 [Compound 10, 4-Hydroxybenzaldehyde(7-methylthieno[3,2-d]pyrimidin-4-yl)hydrazone]	–	–	< 3.75	–	–
Cc1csc2c(NN=Cc3ccoc3)ncnc12 [Compound 38, 3-Furancarboxaldehyde(7-methylthieno[3,2-d]pyrimidin-4-yl)hydrazone]	–	–	< 3.71	–	–
COc1cc(C(O)c2sc3c(NN=Cc4cccs4)ncnc3c2C)cc(OC)c1OC (centres unmarked) [Compound 481, 2-Thiophenecarboxaldehyde(6-(1-hydroxy-1-[3,4,5-trimethoxyphenyl])methyl-7-methylthieno[3,2-d]pyrimidin-4-yl)hydrazone]	–	–	–	–	< 3.97
Cc1ccsc1C=NNc1ncnc2c(C)csc12 [Compound 119, 3-Methyl-2-thiophenecarboxaldehyde(7-methylthieno[3,2-d]pyrimidin-4-yl)hydrazone]	–	–	< 3.76	–	–
Clc1ccc(-c2cc3ncnc(NN=Cc4cccnc4)c3s2)cc1 [Compound 308, 3-Pyridinecarboxaldehyde(6-(4-chlorophenyl)thieno[3,2-d]pyrimidin-4-yl)hydrazone]	–	–	< 3.86	–	–
